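Tested at 5 concentrations; 48 h exposure; 96-well plates; endpoints linearly interpolated, else capped at highest concentration. GI50: concentration for 50% inhibition of growth.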 Activity calls are given as the source filed them. Rule as the data show it: active = GI50 up to about 1.1 µM and inactive = higher.
Experiments:
Assay in all cases: inhibition of tumour cell growth, NCI panel, 48 h
[1] = system: 786-0
[2] = system: A549
[3] = system: ACHN
[4] = system: BT-549
[5] = system: HCC 2998
[6] = system: HOP-62
[7] = system: HOP-92
[8] = system: K562
[9] = system: LOX IMVI
[10] = system: M14
[11] = system: MOLT-4
[12] = system: Malme-3M
[13] = system: NCI/ADR-RES
[14] = system: OVCAR-4
[15] = system: OVCAR-5
[16] = system: PC-3
[17] = system: SF-295
[18] = system: SK-MEL-2
[19] = system: SNB-19
[20] = system: UO-31

Measured: GI50

CC(C)(C)NC(=O)[C@H]1CC[C@H]2[C@@H]3CC=C4NC(=O)CC[C@]4(C)[C@H]3CC[C@]12C
inactive: [1] 90.2 µM | [2] > 100 µM | [3] > 100 µM | [4] > 100 µM | [5] > 100 µM | [6] > 100 µM | [7] 97.9 µM | [8] > 100 µM | [9] > 100 µM | [10] > 100 µM | [11] > 100 µM | [12] > 100 µM | [13] 64.9 µM | [14] 50.1 µM | [15] > 100 µM | [16] > 100 µM | [17] > 100 µM | [18] > 100 µM | [19] > 100 µM | [20] > 100 µM

COc1cc(C2SCC(=O)N2c2ccc(NC(=O)c3ccc(N4C(=O)CSC4c4cc(OC)c(OC)c(OC)c4)cc3)cc2)cc(OC)c1OC (stereo not given)
inactive: [1] 70 µM | [2] > 100 µM | [3] 63.7 µM | [4] 56 µM | [5] > 100 µM | [6] 76.4 µM | [7] 16.4 µM | [8] 37.9 µM | [9] 31.8 µM | [10] 73.1 µM | [11] 34.8 µM | [12] 79.1 µM | [13] 25.2 µM | [14] 33 µM | [15] 95.1 µM | [16] 58.3 µM | [17] 29.3 µM | [18] 91.6 µM | [19] 84.1 µM | [20] 67.1 µM

O=P1(O)c2ccccc2Nc2cc(C(F)(F)F)ccc21
inactive: [1] > 100 µM | [2] > 100 µM | [3] > 100 µM | [4] > 100 µM | [5] > 100 µM | [6] > 100 µM | [7] > 100 µM | [8] > 100 µM | [9] > 100 µM | [10] > 100 µM | [11] > 100 µM | [12] > 100 µM | [13] > 100 µM | [14] > 100 µM | [15] > 100 µM | [16] > 100 µM | [17] > 100 µM | [18] > 100 µM | [19] > 100 µM | [20] > 100 µM

Cc1ccc(/C=C2\CCC/C(=C\c3ccc(O)c(CN4CCCCC4)c3)C2=O)cc1
inactive: [1] 3.72 µM | [2] 9.4 µM | [3] 5.61 µM | [4] 6.62 µM | [5] 4.46 µM | [6] 15.3 µM | [7] 9.71 µM | [8] 3.56 µM | [9] 3.18 µM | [10] 3.73 µM | [11] 3.6 µM | [12] 17.3 µM | [13] 4.07 µM | [14] 11.1 µM | [15] 17.4 µM | [16] 8.05 µM | [17] 10.7 µM | [18] 19.9 µM | [19] 16.2 µM | [20] 11.2 µM

O=C1c2c(ccc3c2CCCC3)CC12Cc1ccccc1C2
inactive: [1] 14.2 µM | [2] 13.1 µM | [3] 7.73 µM | [4] 81.8 µM | [5] 19.1 µM | [6] 16.8 µM | [7] 12.7 µM | [8] 11.8 µM | [9] 10.1 µM | [10] 21 µM | [11] 4.03 µM | [12] 5.48 µM | [13] 15.8 µM | [14] 40.8 µM | [15] 21.8 µM | [16] 22.9 µM | [17] 19 µM | [18] 17.4 µM | [19] 58.6 µM | [20] 5.28 µM

Nc1ccc(-c2cssc2=S)cc1
inactive: [1] 49 µM | [2] 50.6 µM | [3] 38.1 µM | [4] 36.1 µM | [5] 29.2 µM | [6] 42.1 µM | [7] 56.2 µM | [8] 3.21 µM | [9] 41.1 µM | [10] 75.7 µM | [11] 1.17 µM | [12] 34 µM | [13] 41.9 µM | [14] 49.1 µM | [15] > 100 µM | [16] 41.9 µM | [17] 33.3 µM | [18] 27.1 µM | [19] > 100 µM | [20] 35.9 µM

N#CCCN(CCCN(C(=O)Nc1ccccc1)c1ccccc1)C(=O)Nc1ccccc1
inactive: [1] > 100 µM | [2] 78.9 µM | [3] > 100 µM | [4] > 100 µM | [5] > 100 µM | [6] > 100 µM | [7] 71.1 µM | [8] 54.3 µM | [9] > 100 µM | [10] > 100 µM | [11] 32.6 µM | [12] > 100 µM | [13] > 100 µM | [14] > 100 µM | [15] > 100 µM | [16] 73.3 µM | [17] > 100 µM | [18] > 100 µM | [19] 64.3 µM | [20] 58.3 µM
